# Read-outs that look alike come from different tables or passages of the source.
# Assay: Phase I dose-escalating study, plasma pharmacokinetics in patients with solid tumor
# Assay type: in vivo, human
# Details: human, plasma; for concentration at 3 h: nominal time 3 h; for concentration at 6 h: nominal time 6 h; for concentration at 8 h: nominal time 8 h; for concentration at 10 h: nominal time 10 h; for concentration at 4 h: nominal time 4 h; for concentration at 0 h: nominal time 0 h; for concentration at 1 h: nominal time 1 h; for concentration at 2 h: nominal time 2 h; for concentration at 20 h: nominal time 20 h; for concentration at 48 h: nominal time 48 h; for concentration at 72 h: nominal time 72 h; for concentration at 96 h: nominal time 96 h; for concentration at 144 h: nominal time 144 h; for AUC(0-t): read-out: AUC(0-24), mean (% CV); for Cmax: read-out: Cmax, mean (% CV); for Tmax: read-out: tmax, mean (% CV); for half-life: read-out: t½, mean (% CV) (converted)
# Protocol: Cmax values, or maximum total plasma concentrations, of a compound of formula 1 can be measured according to techniques well known to those skilled in the art. For example, after a compound of formula 1 has been administered to a mammal, blood samples can be taken at fixed time points over a period of time (e.g. 24 hours) and the serum or plasma concentration of compound of formula 1 can be measured using standard analytical techniques known in the art. In vivo determinations Cmax can then be made by plotting the serum or plasma concentration of compound of formula 1 along the ordinate (y-axis) against time along the abscissa (x-axis).
# The maleate salt of compound 1 was administered to human patients with solid tumor malignancies not amenable to conventional therapies in a Phase I dose-escalating multicenter study. The types of tumor malignancies included colorectal carcinoma, renal cell carcinoma, esophageal carcinoma, thymus carcinoma, mastocytosis, lung cancer and multiple endocrine neoplasia type II. Patients were treated in cohorts of 6 with escalating QD (once per day) doses of the maleate salt of compound 1 under fasting conditions. Each study cycle of 5 weeks consisted of 4 weeks of treatment followed by 1 week of rest (4/1 schedule), or continuous dosing without any rest period.
# Full pharmacokinetic profiles were collected on Cycle 1 Day 1 (C1D1), Cycle 1 Day 28 (C1D28), and Cycle 2 Day 28 (C2D28). Preliminary pharmacokinetic parameters for the first 44 patients, i.e. the first 7 dosing groups, were estimated using nominal collection times and quality-controlled, non-quality assured bioanalytical data. The dosage amounts in Table 1A and Table 1B are free base equivalent amounts.
# [1] = 150 mg QD, 150 mg QD 4/1 (n = 5), read-out: Mean plasma concentration following the last dose on cycle 1 day 28
# [2] = 150 mg QD, 150 mg QD Continuous (n = 6), read-out: Mean plasma concentration following the last dose on cycle 1 day 28
# [3] = 150 mg, 150 mg QD 4/1 (n = 5), read-out: Mean plasma concentration following the last dose on cycle 1 day 28
# [4] = 150 mg, 150 mg QD (4/1), C1D1 (n = 7)
# [5] = 150 mg, 150 mg QD (4/1), C1D28 (n = 5)
# [6] = 150 mg, 150 mg QD (4/1), C2D28 (n = 4)
# [7] = 150 mg, 150 mg QD Continuous (n = 6), read-out: Mean plasma concentration following the last dose on cycle 1 day 28
# [8] = 200 mg QD, 200 mg QD 4/1 (n = 5), read-out: Mean plasma concentration following the last dose on cycle 1 day 28
# [9] = 200 mg, 200 mg QD 4/1 (n = 5), read-out: Mean plasma concentration following the last dose on cycle 1 day 28
# [10] = 200 mg, 200 mg QD (4/1), C1D1 (n = 6)
compound,measurement,setting,value
"Cc1[nH]c(/C=C2\C(=O)Nc3ccc(F)cc32)c(C)c1C(=O)NC[C@H](O)CN1CCOCC1 [compound 1, 5-[(Z)-(5-fluoro-2-oxo-1,2-dihydro-3H-indol-3-ylidene)methyl]-N-[(2S)-2-hydroxy-3-morpholin-4-ylpropyl]-2,4-dimethyl-1H-pyrrole-3-carboxamide]",concentration at 3 h,[1],268 ng/mL
same,concentration at 6 h,[1],161 ng/mL
same,concentration at 8 h,[1],142 ng/mL
same,concentration at 10 h,[1],132 ng/mL
same,concentration at 3 h,[2],407 ng/mL
same,concentration at 4 h,[2],519 ng/mL
same,concentration at 6 h,[2],471 ng/mL
same,concentration at 8 h,[2],404 ng/mL
same,concentration at 10 h,[2],345 ng/mL
same,concentration at 0 h,[3],99.8 ng/mL
same,concentration at 1 h,[3],184 ng/mL
same,concentration at 2 h,[3],252 ng/mL
same,concentration at 4 h,[3],231 ng/mL
same,concentration at 20 h,[3],42.9 ng/mL
same,concentration at 24 h,"150 mg, 150 mg QD 4/1 (n = 5), nominal time 24 h, read-out: Mean plasma concentration following the last dose on cycle 1 day 28",94.8 ng/mL
same,concentration at 48 h,[3],31.2 ng/mL
same,concentration at 72 h,[3],9.08 ng/mL
same,concentration at 96 h,[3],4.17 ng/mL
same,concentration at 144 h,[3],1.52 ng/mL
same,AUC(0-t),[4],3370 ng·h/mL
same,concentration at 24 h,"150 mg, 150 mg QD (4/1), C1D1 (n = 7), read-out: C(trough, 24 h), mean (% CV)",81.7 ng/mL
same,Cmax,[4],421 ng/mL
same,Tmax,[4],1.6 h
same,half-life,[4],13.6 h
same,AUC(0-t),[5],2960 ng·h/mL
same,concentration at 24 h,"150 mg, 150 mg QD (4/1), C1D28 (n = 5), read-out: C(trough, 24 h), mean (% CV)",75.8 ng/mL
same,Cmax,[5],299 ng/mL
same,Tmax,[5],1.8 h
same,half-life,[5],19.3 h
same,AUC(0-t),[6],3090 ng·h/mL
same,concentration at 24 h,"150 mg, 150 mg QD (4/1), C2D28 (n = 4), read-out: C(trough, 24 h), mean (% CV)",54.6 ng/mL
same,Cmax,[6],269 ng/mL
same,Tmax,[6],3 h
same,half-life,[6],13.2 h
same,concentration at 0 h,[7],124 ng/mL
same,concentration at 1 h,[7],244 ng/mL
same,concentration at 2 h,[7],453 ng/mL
same,concentration at 20 h,[7],104 ng/mL
same,concentration at 24 h,"150 mg, 150 mg QD Continuous (n = 6), nominal time 24 h, read-out: Mean plasma concentration following the last dose on cycle 1 day 28",271 ng/mL
same,concentration at 3 h,[8],396 ng/mL
same,concentration at 4 h,[8],441 ng/mL
same,concentration at 6 h,[8],463 ng/mL
same,concentration at 8 h,[8],349 ng/mL
same,concentration at 10 h,[8],361 ng/mL
same,concentration at 0 h,[9],353 ng/mL
same,concentration at 1 h,[9],408 ng/mL
same,concentration at 2 h,[9],408 ng/mL
same,concentration at 20 h,[9],189 ng/mL
same,concentration at 24 h,"200 mg, 200 mg QD 4/1 (n = 5), nominal time 24 h, read-out: Mean plasma concentration following the last dose on cycle 1 day 28",259 ng/mL
same,concentration at 48 h,[9],87.6 ng/mL
same,concentration at 72 h,[9],31.4 ng/mL
same,concentration at 96 h,[9],13 ng/mL
same,concentration at 144 h,[9],4.77 ng/mL
same,AUC(0-t),[10],3440 ng·h/mL
same,concentration at 24 h,"200 mg, 200 mg QD (4/1), C1D1 (n = 6), read-out: C(trough, 24 h), mean (% CV)",147 ng/mL
same,Cmax,[10],262 ng/mL
same,Tmax,[10],8.7 h

# From patent publication US20090012085A1, “DOSAGE FORMS AND METHODS OF TREATMENT USING A TYROSINE KINASE INHIBITOR” (priority 2005, published 2009)
